Legend:
mTRPV1 = target: T1, mTRPV1 (Mus musculus, UniProt Q704Y3); test: Whole-cell patch-clamp of mTRPV1 expressed in HEK293 cells; assay type: cell-based; settings: SEM
T1 construct: expressed in transfected cells; host or cells: HEK-293T
From the text: TRPV1 and TRPV3 chimeras used in this study were generated by the overlapping extension method[54] and confirmed by DNA sequencing, as described previously. Briefly, to generate V1/3S, the primer pairs (5′-[…]-3′and 5′-[…]-3′) were used. To generate other TRPV1/TRPV3 chimeras, the enzyme cutting sites by MluI were made by the primer pair (5′-[…]-3′ and 5′-[…]-3′) for TRPV1 and the primer pair (5′-[…]-3′ and 5′-[…]-3′) for TRPV3. The enzyme cutting sites by PvuI were made by the primer pair (5′-[…]-3′ and 5′-[…]-3′) for TRPV1 and the primer pair (5′-[…]-3′ and 5′-[…]-3′) for TRPV3. The enzyme cutting sites by BsiWI were made by the primer pair (5′-[…]-3′ and 5′-[…]-3′) for TRPV1 and the primer pair (5′-[…]-3′ and 5′-[…]-3′) for TRPV3. V1/3M were generated by enzyme cut and paste between MluI and PvuI sites, while V1/3L were generated by enzyme cut and paste between MluI and BsiWI sites. V1_S1S2_1, V1_S1S2_3 and V1_S1S2_3 were generated as previously reported. All mTRPV1 point mutations were constructed using the QuickChange II XL site-directed mutagenesis kit following the manufacturer’s instruction. These point mutations were sequenced to confirm that appropriate constructs were made. HEK-293T cells were cultured and transiently transfected using Lipofectamine 2,000 (Invitrogen) as previously described.
(§1) As described in details in a previous report, macroscopic currents (in whole-cell, inside-out or outside-out configuration) as well as single-channel currents were recorded using a HEKA EPC10 amplifier with the PatchMaster software (HEKA). Both pipette solution and bath solution contained 130 mM NaCl, 3 mM HEPES and 0.2 mM EDTA (pH 7.2). All recordings were performed at room temperature unless otherwise stated. A holding potential of 0 mV was used from which a testing pulse to +80 mV was applied. Statistical difference was determined using the Student’s t-test, and indicated by ** when reaching the significance level P<0.001.

[1] = system: mTRPV1 point mutants at D602, Y632, T634 and L461; test: Calcium imaging of mTRPV1 point mutants; assay type: cell-based, mouse; settings: glycine or alanine mutation; 10 μM RhTx, 10 μM capsaicin
From the text: TRPV1 and TRPV3 chimeras used in this study were generated by the overlapping extension method[54] and confirmed by DNA sequencing, as described previously. Briefly, to generate V1/3S, the primer pairs (5′-[…]-3′and 5′-[…]-3′) were used. To generate other TRPV1/TRPV3 chimeras, the enzyme cutting sites by MluI were made by the primer pair (5′-[…]-3′ and 5′-[…]-3′) for TRPV1 and the primer pair (5′-[…]-3′ and 5′-[…]-3′) for TRPV3. The enzyme cutting sites by PvuI were made by the primer pair (5′-[…]-3′ and 5′-[…]-3′) for TRPV1 and the primer pair (5′-[…]-3′ and 5′-[…]-3′) for TRPV3. The enzyme cutting sites by BsiWI were made by the primer pair (5′-[…]-3′ and 5′-[…]-3′) for TRPV1 and the primer pair (5′-[…]-3′ and 5′-[…]-3′) for TRPV3. […]
Mouse DRG neurons were acutely dissociated and maintained in a short-term primary culture according to procedures as previous descripted. […] Fluorescence images of DRG neurons and HEK-293T cells were acquired with an Olympus IX81 microscope with Hamamatsu C4742 charge-coupled device camera controlled by the MetaFluor Software (Molecular Devices). Fluo-4 was excited by a mercury vapour light source with a 500/20-nm excitation filter, while fluorescence emission was detected with a 535/30-nm emission filter. Fluorescence images were required with automated routines written in MetaMorph software (Molecular Devices) and analysed with Igor Pro (Wavemetrics).

Trpv1−/− knockout mice = test: Paw-licking assay in TRPV1 knockout mice; assay type: in vivo, mouse; settings: intraplantar, 1 μmol per paw
Procedure: In vivo effects of RhTx on WT mice or Trpv1^−/− mice were examined according to protocols described previously. For the paw-licking assay, pain was induced in mice by intraplantar injection of 0.1% formalin, capsaicin (1 μmol per paw) or RhTx (1 μmol per paw). Each of the testing materials was dissolved in 100 μl saline. Control mice received the same volume of saline. Injected mice were placed individually into open polyvinyl cages (20 × 40 × 15 cm). Time spent licking the injected paw was recorded by a digital video camera during the following 40 min. For recording colonic temperature from WT or Trpv1^−/− mice, mice equipped with a copper-constantan thermocouple were individually placed in open polyvinyl cages. A data logger was connected to the thermocouple. Mice were injected intraperitoneally with 100 μl saline containing capsaicin or RhTx. The dose of capsaicin or RhTx was 10 μmol kg^−1 for these experiments. Mice in the control group received the same volume of saline.

[2] = system: mTRPV1 point mutants at D602, Y632, T634 and L461; test: Whole-cell current of mTRPV1 point mutants; assay type: cell-based, mouse; settings: glycine or alanine mutation, both at 10 μM, +80 mV
From the text: TRPV1 and TRPV3 chimeras used in this study were generated by the overlapping extension method[54] and confirmed by DNA sequencing, as described previously. Briefly, to generate V1/3S, the primer pairs (5′-[…]-3′and 5′-[…]-3′) were used. To generate other TRPV1/TRPV3 chimeras, the enzyme cutting sites by MluI were made by the primer pair (5′-[…]-3′ and 5′-[…]-3′) for TRPV1 and the primer pair (5′-[…]-3′ and 5′-[…]-3′) for TRPV3. The enzyme cutting sites by PvuI were made by the primer pair (5′-[…]-3′ and 5′-[…]-3′) for TRPV1 and the primer pair (5′-[…]-3′ and 5′-[…]-3′) for TRPV3. The enzyme cutting sites by BsiWI were made by the primer pair (5′-[…]-3′ and 5′-[…]-3′) for TRPV1 and the primer pair (5′-[…]-3′ and 5′-[…]-3′) for TRPV3. V1/3M were generated by enzyme cut and paste between MluI and PvuI sites, while V1/3L were generated by enzyme cut and paste between MluI and BsiWI sites. V1_S1S2_1, V1_S1S2_3 and V1_S1S2_3 were generated as previously reported. […]
As described in details in a previous report, macroscopic currents (in whole-cell, inside-out or outside-out configuration) as well as single-channel currents were recorded using a HEKA EPC10 amplifier with the PatchMaster software (HEKA). […] Statistical difference was determined using the Student’s t-test, and indicated by ** when reaching the significance level P<0.001.

TRPV1 = test: Cooling of RhTx- or capsaicin-induced channel activation; assay type: cell-based; settings: RhTx at 1 μM
Procedure: as §1

T1 sequence (Q704Y3 whole entry): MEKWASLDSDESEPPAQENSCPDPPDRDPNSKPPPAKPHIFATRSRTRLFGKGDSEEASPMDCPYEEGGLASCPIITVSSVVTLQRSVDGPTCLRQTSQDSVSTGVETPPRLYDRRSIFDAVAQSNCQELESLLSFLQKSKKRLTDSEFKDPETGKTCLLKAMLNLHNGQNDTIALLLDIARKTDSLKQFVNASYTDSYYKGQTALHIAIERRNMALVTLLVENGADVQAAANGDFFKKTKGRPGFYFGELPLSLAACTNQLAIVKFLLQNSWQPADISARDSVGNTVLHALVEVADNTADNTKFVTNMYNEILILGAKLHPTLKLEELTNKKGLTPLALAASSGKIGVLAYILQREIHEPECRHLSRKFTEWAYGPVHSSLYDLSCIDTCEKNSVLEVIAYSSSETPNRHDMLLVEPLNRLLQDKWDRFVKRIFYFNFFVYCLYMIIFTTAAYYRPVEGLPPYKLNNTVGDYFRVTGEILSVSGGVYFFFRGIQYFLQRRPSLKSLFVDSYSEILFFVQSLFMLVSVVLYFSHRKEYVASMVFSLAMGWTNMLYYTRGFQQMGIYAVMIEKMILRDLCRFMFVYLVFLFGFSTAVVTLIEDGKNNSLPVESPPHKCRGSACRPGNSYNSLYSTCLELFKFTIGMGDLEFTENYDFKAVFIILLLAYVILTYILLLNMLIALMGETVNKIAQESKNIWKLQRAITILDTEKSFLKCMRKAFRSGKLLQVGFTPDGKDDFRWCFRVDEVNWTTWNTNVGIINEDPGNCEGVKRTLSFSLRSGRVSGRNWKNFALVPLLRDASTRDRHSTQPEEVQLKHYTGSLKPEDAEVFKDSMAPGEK

COc1cc(CNC(=O)CCCC/C=C/C(C)C)ccc1O [capsaicin, reference compound]
EC50 (mTRPV1): 214 ± 20.6 nM | Hill slope (mTRPV1): 1.36±0.18 | agonist-induced intracellular calcium increase in point mutants versus WT channel [1]: sparing | pain behaviour (paw licking) in knockout mice (Trpv1−/− knockout mice): ineffective | agonist-induced current in point mutants versus WT channel [2]: sparing | effect of lowering the experimental temperature on agonist-induced channel activation (TRPV1): could not prevent
